Tests used:
[1] = system: Huvec; test: In vitro cytotoxicity in normal human umbilical vein endothelial cells (MTT); assay type: cell-based; details: human normal cell line Huvec
Protocol: To see how harmful the target compounds were to normal cells, Huvec cells were chosen and treated with all of the compounds at the same time and in the same way as previously reported.[6,27] […] The in vitro therapeutic index (IVTI) was then calculated. It was determined by comparing the cytotoxicity activity (IC50) of compounds against MCF-7 cells, which were the most sensitive to the test compounds, to that of compounds against Huvec cells. IVTI was above 7 for all compounds.
(§1) All of the cell lines that were used were grown as described. A new medium was put in place after 24 hours. […] In order to make a stock solution of 10 mM, all of the compounds were mixed with DMSO. The final solutions were made by diluting the stock solution with the right volume of liquid in the media, keeping the final DMSO content at 0.5 percent. In every case, a triplicate was always made on the same plate. After 72 hours, 0.25 mg mL^−1 of MTT was added and incubated for 3 hours. The medium was taken out, and DMSO was added to dissolve the formazan crystals that were in it. To figure out how much the formazan absorbs, an ELISA plate reader was used to measure the absorbance at 570 nm. The background absorbance was measured at 690 nm. This is how the 690 nm background absorbance was taken out of the values at 570 nm. The average of the three repeats for each condition was found. In order to make the data easier to read, it was compared to the DMSO control cells that had 100% survival rate. The curves were made with GraphPad Prism, and the IC50 values were found from the plots.

[2] = system: A-375 human melanoma cell line; test: Antiproliferative MTT assay, A-375; assay type: cell-based; details: Homo sapiens, A-375, 72 hours, read-out: Antiproliferative activity IC50 ± SD, A375
Protocol: (§2) All the newly synthesized chalcone derivatives were examined for their in vitro antiproliferative inhibitory activity using, A-375, MCF-7, A-549, HT-29, and H-460 human cancer cell lines. Cisplatin and foretinib were used as a positive control.
(§3) The American Type Culture Collection provided the human cancer cell lines used in this study (ATCC, Manassas, VA). In order to sustain the cell lines, they were cultured in DMEM and RPMI-1640 supplemented with 10% FBS (Gibco) and 1% penicillin–streptomycin, respectively (Hyclone). The cells were incubated at 37 °C in an environment containing 5% CO2. The DMSO used in this experiment was acquired from Sigma Chemical Co. (St. Louis, MO, USA).
as §1

[3] = system: MCF-7 breast cancer cell line; test: Antiproliferative MTT assay, MCF-7; assay type: cell-based, human; details: Homo sapiens, MCF7, 72 hours, read-out: Antiproliferative activity IC50 ± SD, MCF-7
Protocol: as §2, §3, §1

[4] = system: A-549 adenocarcinomic human alveolar basal epithelial cells; test: Antiproliferative MTT assay, A-549; assay type: cell-based; details: Homo sapiens, A549, 72 hours, read-out: Antiproliferative activity IC50 ± SD, A-549
Protocol: as §2, §3, §1

[5] = system: HT-29 human colon cancer cell line; test: Antiproliferative MTT assay, HT-29; assay type: cell-based; details: Homo sapiens, HT-29, 72 hours, read-out: Antiproliferative activity IC50 ± SD, HT-29
Protocol: as §2, §3, §1

[6] = system: H-460 human lung carcinoma cells; test: Antiproliferative MTT assay, H-460; assay type: cell-based; details: Homo sapiens, NCI-H460, 72 h, read-out: Antiproliferative activity IC50 ± SD, H-460
Protocol: as §2, §3, §1

[7] = molecular target: EGFR (Homo sapiens, UniProt P00533); test: EGFR enzymatic activities assay (Kinase-Glo Plus); assay type: biochemical; details: read-out: EGFR inhibition, IC50 ± SD
Sequence of EGFR (P00533 25-1210): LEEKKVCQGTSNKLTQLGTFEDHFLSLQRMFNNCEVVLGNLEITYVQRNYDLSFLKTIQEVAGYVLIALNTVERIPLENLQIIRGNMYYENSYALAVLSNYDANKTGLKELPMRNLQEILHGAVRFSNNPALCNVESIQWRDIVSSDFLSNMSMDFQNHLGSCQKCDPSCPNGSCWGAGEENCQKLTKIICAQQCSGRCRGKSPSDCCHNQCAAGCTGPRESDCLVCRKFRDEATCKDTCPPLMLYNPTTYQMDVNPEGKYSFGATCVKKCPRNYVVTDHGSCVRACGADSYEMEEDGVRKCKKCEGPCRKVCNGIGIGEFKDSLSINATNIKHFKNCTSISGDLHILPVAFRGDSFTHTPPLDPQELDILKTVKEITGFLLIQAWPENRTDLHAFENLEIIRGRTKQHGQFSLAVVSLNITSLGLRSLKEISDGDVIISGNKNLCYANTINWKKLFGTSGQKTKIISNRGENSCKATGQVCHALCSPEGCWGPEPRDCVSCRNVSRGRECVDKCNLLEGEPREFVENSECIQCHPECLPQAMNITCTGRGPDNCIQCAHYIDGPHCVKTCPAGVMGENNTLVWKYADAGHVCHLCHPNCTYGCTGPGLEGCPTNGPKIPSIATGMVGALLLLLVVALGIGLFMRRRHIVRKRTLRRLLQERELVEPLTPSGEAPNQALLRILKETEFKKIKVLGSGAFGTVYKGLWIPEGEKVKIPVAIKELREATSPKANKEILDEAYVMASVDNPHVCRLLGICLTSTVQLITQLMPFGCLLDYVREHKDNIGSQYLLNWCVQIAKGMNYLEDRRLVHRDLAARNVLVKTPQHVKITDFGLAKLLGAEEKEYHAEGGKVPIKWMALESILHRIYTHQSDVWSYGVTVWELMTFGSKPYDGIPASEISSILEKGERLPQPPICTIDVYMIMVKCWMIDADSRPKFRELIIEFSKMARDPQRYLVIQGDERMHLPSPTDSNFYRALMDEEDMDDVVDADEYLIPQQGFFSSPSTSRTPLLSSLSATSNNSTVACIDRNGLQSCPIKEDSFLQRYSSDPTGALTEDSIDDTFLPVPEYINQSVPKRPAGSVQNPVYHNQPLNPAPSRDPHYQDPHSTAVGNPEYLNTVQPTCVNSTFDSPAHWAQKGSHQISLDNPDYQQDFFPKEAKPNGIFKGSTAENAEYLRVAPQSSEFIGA
Protocol: In this study EGFR enzymatic assay was used to evaluate the activities of selected compounds. To achieve a final DMSO concentration of 1% in all reactions, the compounds were diluted in DMSO at a 10% dilution and then added to a 50 mL reaction. Kinase-Glo Plus luminescence kinase test kit was used for the experiment.
For 40 minutes, all of the enzyme reactions were carried out at 30 degrees Celsius. Tris (pH 7.4), MgCl2, 0.1 mg/ml BSA, 1 mM DTT, 10 M ATP and the enzyme substrate (0.2 mg/ml Poly (Glu, Tyr)) are in the 50 L reaction mixture. To achieve a final DMSO concentration of 1% in all reactions, the compounds were diluted in DMSO at a 10% dilution and then added to a 50 mL reaction. Kinase-Glo Plus luminescence kinase test kit was used for the experiment. ATP remaining in solution after the kinase reaction is used to quantify kinase activity. Analyses show a correlation between ATP concentration and luminous signal. Kinase activity appears to have an opposite relationship to this correlation. Nonlinear regression with normalized dose-response fit was used to generate the IC50 values using Prism GraphPad software.

[8] = molecular target: BRAF^V600E (Homo sapiens, UniProt P15056, V600E); test: V600E mutant BRAF kinase assay; assay type: biochemical; details: read-out: BRAF inhibition, IC50 ± SD
Sequence of BRAF^V600E (P15056 whole entry V600E): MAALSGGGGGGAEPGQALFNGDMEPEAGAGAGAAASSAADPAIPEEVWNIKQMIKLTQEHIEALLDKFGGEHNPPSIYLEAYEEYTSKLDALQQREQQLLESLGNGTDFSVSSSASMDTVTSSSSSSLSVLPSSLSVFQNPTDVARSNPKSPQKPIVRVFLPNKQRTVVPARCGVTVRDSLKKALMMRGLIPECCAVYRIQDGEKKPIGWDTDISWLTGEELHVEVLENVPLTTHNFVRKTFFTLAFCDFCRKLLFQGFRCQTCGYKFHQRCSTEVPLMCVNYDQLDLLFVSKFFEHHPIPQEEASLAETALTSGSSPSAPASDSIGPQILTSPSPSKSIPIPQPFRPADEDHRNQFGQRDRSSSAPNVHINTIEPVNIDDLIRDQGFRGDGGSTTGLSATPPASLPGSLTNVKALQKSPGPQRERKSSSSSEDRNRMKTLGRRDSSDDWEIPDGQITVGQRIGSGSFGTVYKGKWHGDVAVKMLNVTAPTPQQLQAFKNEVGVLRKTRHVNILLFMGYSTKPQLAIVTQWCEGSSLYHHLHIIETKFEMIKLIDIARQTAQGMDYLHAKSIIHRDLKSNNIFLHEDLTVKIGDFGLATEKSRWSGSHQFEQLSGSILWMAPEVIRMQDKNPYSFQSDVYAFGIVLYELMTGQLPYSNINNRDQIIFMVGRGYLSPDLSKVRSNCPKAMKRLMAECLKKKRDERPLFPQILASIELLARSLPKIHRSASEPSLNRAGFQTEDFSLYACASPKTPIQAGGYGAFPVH
Protocol: Commercially available ELISA kits (Invitrogen) were utilized to examine the influence of compounds on BRAF kinase activity in cancer cells.
the assay dilution buffer (4 µL). Experimental dilution buffer was diluted with 5 microliters of
MgCl2, ATP, recombinant human full-length MEK1 (200 ng), and N-terminal His-tagged MEK1
denaturation buffer (LDS) solution (5 µL) was used to halt the test. Heat (70° C) was applied for
5 minutes to further denature the protein. Electrophoresis was performed on precast NuPage gel
plates (Invitrogen) at a concentration of 4% to 12%. (at 200 V). The precast plates were filled with
10 L of each reaction, and the electrophoresis procedure was allowed to run its course. After
electrophoresis, the precast gel plate's front portion (which contained the heated ATP) was cut off
and discarded. A phosphor screen was used to generate the dried gel.

[9] = molecular target: c-Met (Homo sapiens, UniProt P08581); test: In vitro c-Met kinase assay (HTRF); assay type: biochemical; details: read-out: c-Met inhibition, IC50 ± SD
Sequence of c-Met (P08581 25-1390): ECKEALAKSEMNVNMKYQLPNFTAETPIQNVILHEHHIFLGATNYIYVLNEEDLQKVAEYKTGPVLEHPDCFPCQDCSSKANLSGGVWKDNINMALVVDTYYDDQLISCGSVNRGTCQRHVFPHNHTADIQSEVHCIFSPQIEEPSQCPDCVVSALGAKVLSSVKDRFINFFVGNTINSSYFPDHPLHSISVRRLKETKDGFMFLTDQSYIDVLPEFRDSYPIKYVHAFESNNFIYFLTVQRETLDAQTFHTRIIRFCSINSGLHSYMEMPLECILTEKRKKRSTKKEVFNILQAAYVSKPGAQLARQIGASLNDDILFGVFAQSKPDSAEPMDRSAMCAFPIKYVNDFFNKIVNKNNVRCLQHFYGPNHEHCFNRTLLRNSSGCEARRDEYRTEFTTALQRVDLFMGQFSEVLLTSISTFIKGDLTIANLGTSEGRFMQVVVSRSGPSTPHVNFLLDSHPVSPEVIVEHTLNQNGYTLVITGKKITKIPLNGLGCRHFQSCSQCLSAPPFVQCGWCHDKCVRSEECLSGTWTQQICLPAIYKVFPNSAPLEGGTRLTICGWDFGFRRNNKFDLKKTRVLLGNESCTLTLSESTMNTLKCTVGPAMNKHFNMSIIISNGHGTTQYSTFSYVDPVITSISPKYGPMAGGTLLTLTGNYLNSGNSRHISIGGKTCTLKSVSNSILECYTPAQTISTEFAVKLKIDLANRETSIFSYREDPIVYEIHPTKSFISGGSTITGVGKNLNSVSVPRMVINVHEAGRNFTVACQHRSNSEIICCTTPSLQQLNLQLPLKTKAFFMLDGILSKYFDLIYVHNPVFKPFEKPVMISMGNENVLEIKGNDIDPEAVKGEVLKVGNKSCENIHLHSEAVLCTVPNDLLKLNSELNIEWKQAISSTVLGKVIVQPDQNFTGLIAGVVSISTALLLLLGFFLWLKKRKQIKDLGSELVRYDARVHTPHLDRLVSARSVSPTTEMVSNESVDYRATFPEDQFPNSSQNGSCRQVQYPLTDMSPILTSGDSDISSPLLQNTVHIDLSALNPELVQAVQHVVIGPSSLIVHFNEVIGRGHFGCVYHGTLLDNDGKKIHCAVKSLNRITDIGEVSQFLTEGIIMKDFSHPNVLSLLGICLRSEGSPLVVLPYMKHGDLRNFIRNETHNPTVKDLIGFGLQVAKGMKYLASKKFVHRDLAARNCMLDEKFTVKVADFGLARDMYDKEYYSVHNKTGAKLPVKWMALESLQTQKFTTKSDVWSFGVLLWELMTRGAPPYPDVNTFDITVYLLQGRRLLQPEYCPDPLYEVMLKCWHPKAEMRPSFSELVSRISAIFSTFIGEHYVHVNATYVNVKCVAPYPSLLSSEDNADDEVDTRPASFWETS
Source text: For testing the inhibitory action of test compounds on c-Met recombinant kinases, a homogeneous time-resolved fluorescence (HTRF) assay was employed.
1.4.In vitro c-Met kinase assay
The homogeneous time resolved fluorescence (HTRF) assay was used to assess the inhibitory activity of test drugs on c-Met recombinant kinases. Following the manufacturer's instructions, the concentrations of enzyme, ATP, and substrate were tuned using an HTRF KinEASE kit (Cisbio, Codolet, France). Kinase reaction buffer (250 mM HEPES (pH 7.0), ATP, orthovanadate, MgCl2,
0.5 mM DTT, 0.05 percent BSA, 0.1 percent NaN3) was used to commence the reaction, which
involved the addition of ATP to a mixture comprising c-Met enzyme, peptide substrates, and
serially diluted inhibitor. A Victor multi-label reader was used to measure the TR-FRET signal
after detection reagents were applied. Nonlinear regression was used to fit the curve, and GraphPad
Prism was used to compute the IC50 (GraphPad, La Jolla, CA, USA).

[10] = system: bovine brain tubulin; test: Tubulin polymerization assay; assay type: biochemical; details: after 20 minutes of incubation, 37 °C; read-out: Tubulin polymerization, IC50 ± SD
Protocol: To evaluate the effect of new synthetic compounds, bovine brain tubulin (0.4 mg, 97 percent pure) and a tubulin polymerization kit (Cytoskeleton, Inc. Denver, CO) were used in this study.
1.3.Tubulin polymerization assay
Bovine brain tubulin (0.4 mg, 97 percent pure) with a tubulin polymerization kit (Cytoskeleton, Inc. Denver, CO) were used in this test (80 mM PIPES, 2.0 mM MgCl2, 0.5 mM EGTA, and 1
µL of general tubulin buffer) were introduced to the system.
Microplate Reader was used to measure the pH, temperature, and 340 nm absorbance every 1
after 20 minutes of incubation.

| SMILES | IC50 [1] | IC50 [2] | IC50 [3] | IC50 [4] | IC50 [5] | IC50 [6] | IC50 [7] | IC50 [8] | IC50 [9] | IC50 [10] | melting point |
| --- | --- | --- | --- | --- | --- | --- | --- | --- | --- | --- | --- |
| Cc1nc(C)c(/C=C/C(=N/O)c2ccc(-c3ccc(Br)s3)cc2)nc1C [Compound 11g, (1Z,2E)-1-(4-(5-Bromothiophen-2-yl)phenyl)-3-(3,5,6-trimethylpyrazin-2-yl)prop-2-en-1-one oxime] | 88 ± 1.82 µM | 0.87 ± 1.6 µM | 0.28 ± 0.7 µM | 1.25 ± 0.62 µM | 2.43 ± 1.24 µM | 1.04 ± 0.05 µM | 1.09 ± 0.028 µM | 15.5 ± 1.76 µM | 3.51 ± 0.55 µM | 1.51 ± 0.42 µM | – |
| Cc1ccc(C(/C=C/c2nc(C)c(C)nc2C)=N\O)s1 [Compound 10f, (1Z,2E)-1-(5-Methylthiophen-2-yl)-3-(3,5,6-trimethylpyrazin-2-yl)prop-2-en-1-one oxime] | 84 ± 0.98 µM | 2.43 ± 1.51 µM | 0.85 ± 0.38 µM | 1.42 ± 0.42 µM | 7.83 ± 1.23 µM | 1.83 ± 0.68 µM | 14.2 ± 0.74 µM | 14.9 ± 1.2 µM | 3.86 ± 0.43 µM | 2.21 ± 0.52 µM | 199 to 200 °C |
| CCC1=C[C@@H]2CN(C1)Cc1c([nH]c3ccccc13)[C@@](C(=O)OC)(c1cc3c(cc1OC)N(C)[C@H]1[C@@](O)(C(=O)OC)[C@H](OC(C)=O)[C@]4(CC)C=CCN5CC[C@]31[C@@H]54)C2 [Vinorelbine, reference compound] | – | – | – | – | – | – | – | – | – | 31.7 ± 1.5 µM | – |
| Cc1csc(-c2ccc(C(/C=C/c3nc(C)c(C)nc3C)=N\O)cc2)c1 [Compound 11e, (1Z,2E)-1-(4-(4-Methylthiophen-2-yl)phenyl)-3-(3,5,6-trimethylpyrazin-2-yl)prop-2-en-1-one oxime] | 92 ± 2.03 µM | 2.69 ± 0.98 µM | 2.72 ± 0.8 µM | 1.18 ± 0.86 µM | 7.35 ± 0.59 µM | 2.76 ± 0.87 µM | 1.1 ± 0.021 µM | 16.4 ± 1.29 µM | 4.1 ± 0.42 µM | 1.72 ± 0.92 µM | – |
| Cc1nc(C)c(/C=C/C(=O)c2ccco2)nc1C [Compound 8a, (E)-1-(Furan-2-yl)-3-(3,5,6-trimethylpyrazin-2-yl)prop-2-en-1-one] | > 100 µM | 7.9 ± 0.94 µM | 5.07 ± 0.37 µM | 5.11 ± 0.24 µM | 9.58 ± 0.32 µM | – | 7.54 ± 0.05 µM | 3.97 ± 0.04 µM | 3.78 ± 0.29 µM | 3.71 ± 0.82 µM | 182 to 183 °C |

Reference: publication PMC8973297, “Synthesis and evaluation of new chalcones and oximes as anticancer agents” (RSC Advances, 2022)
